Consider 21 compounds from paper PMC12480751, “A quantitative high-throughput screening pipeline to identify small molecule inhibitors of Chikungunya nsP2 protease” (Scientific Reports, 2025).

One data set addresses nsP2pro (Chikungunya virus, UniProt Q8JUX6). The following applies: for nsP2pro Vmax: 150 nM nsP2pro (peptide 2) or 2 μM nsP2pro (peptide 3); for Km: read-out: nsP2pro Km; for Km / nsP2pro kcat: substrate peptide.
For a further data set, the target named is FL nsP2 (Chikungunya virus, UniProt Q8JUX6, C1333A). The following applies: for full-length nsP2 Vmax: 150 nM nsP2 (peptide 2) or 2 μM nsP2 (peptide 3); for Km: read-out: FL nsP2 Km; for Km / FL nsP2 kcat: substrate peptide.
The next data set has as its target CHIKV nsP2pro (Chikungunya virus, UniProt Q8JUX6). Kind of data set: FRET-based nsP2pro proteolytic assay with peptide 2 (nsp3/4 site), 1,536-well qHTS. The following applies: for selectivity for nsP2pro versus Papain, hFurin and HCV NS3-4A: based on biochemical counterscreens; for Emax: read-out: Enzymatic % Efficacy; for inhibitory activity against CHIKV nsP2: biochemical assays. Type of data set: biochemical. For orientation: qHTS replaces the single test concentration by a dilution series.

A further data set deals with T1, nsP2 protease (Chikungunya virus, UniProt Q8JUX6).
T1 construct: expressed in transfected cells; host or cells: HEK293T (the results text says HEK293), transient co-transfection in pcDNA3.1(+)
T1 sequence (Q8JUX6 755-1333 limits assumed): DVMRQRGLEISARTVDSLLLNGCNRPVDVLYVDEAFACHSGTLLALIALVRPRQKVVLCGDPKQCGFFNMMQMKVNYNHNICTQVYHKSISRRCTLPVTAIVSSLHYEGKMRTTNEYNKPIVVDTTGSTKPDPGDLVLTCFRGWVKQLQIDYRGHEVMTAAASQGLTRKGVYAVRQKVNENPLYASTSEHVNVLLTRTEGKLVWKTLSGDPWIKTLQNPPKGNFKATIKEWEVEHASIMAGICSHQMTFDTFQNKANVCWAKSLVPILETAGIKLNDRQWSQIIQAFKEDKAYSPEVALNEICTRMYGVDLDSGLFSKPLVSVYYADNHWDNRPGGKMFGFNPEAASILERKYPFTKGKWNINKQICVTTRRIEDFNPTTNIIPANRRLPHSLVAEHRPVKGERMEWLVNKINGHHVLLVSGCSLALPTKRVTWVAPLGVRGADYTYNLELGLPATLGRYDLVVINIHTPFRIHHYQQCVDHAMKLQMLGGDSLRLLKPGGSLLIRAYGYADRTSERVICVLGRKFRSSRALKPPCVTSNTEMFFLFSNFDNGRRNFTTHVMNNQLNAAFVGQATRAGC
Nature of the data set: cell-based. Type of data set: cell-based. The note with it: for Emax: HEK293, read-out: Cell-based % Efficacy.

Data set [1] deals with CHIKV 181/25 vaccine strain. Nature of the data set: CHIKV181/25 infection assay in SNB-19 cells, high-content immunofluorescence.
Another data set concerns the target human Furin (Homo sapiens, UniProt P09958). Kind of data set: human Furin FRET selectivity counterscreen. The format is biochemical.
Data set [2] is described as follows: CellTiter-Glo cell viability assay of SNB19 cells. The format is cell-based, human. The note with it: human, SNB19 cells. As for the experimental part: Cells were harvested in growth media and dispensed (5 µL /1,000 cells/well) onto 1536-well white plates (Aurora #EWB041000A) using a Multidrop Combi. Control and test compounds were added (25 nL) using an Echo 650 liquid handler. Plates were incubated for 48 h at 37 °C and 5% CO2 and then equilibrated to room temperature prior to addition of 4 µL /well of CellTiter-Glo (Promega) using a Multidrop Combi. Plates were subsequently incubated for 15 min at room temperature and centrifuged for 1 min at 1000 rpm. Luminescence was read on a ViewLux imager equipped with clear filters.

For another data set, the target named is Papain (Carica papaya, UniProt P00784).
Papain, sequence (P00784 134-345): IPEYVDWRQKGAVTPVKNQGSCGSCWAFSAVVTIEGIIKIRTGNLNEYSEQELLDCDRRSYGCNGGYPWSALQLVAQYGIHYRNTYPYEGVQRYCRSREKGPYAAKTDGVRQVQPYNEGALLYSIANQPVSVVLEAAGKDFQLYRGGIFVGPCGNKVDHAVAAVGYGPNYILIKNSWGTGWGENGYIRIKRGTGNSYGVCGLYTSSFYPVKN
Setting [3] is: nsP2pro biochemical assay, 13 cell-active hits.
The mark [4] stands for this setting: nsP2pro biochemical assay, 13 cell-active hits, read-out: Enzymatic IC50.

pIC50: −log10 of the molar value. Entries after “also recorded” stand apart in the source; their conditions may differ. Where two headings read alike, the source gives them in different places. Some results are limits rather than exact numbers.

human Furin, sequence (P09958 108-794): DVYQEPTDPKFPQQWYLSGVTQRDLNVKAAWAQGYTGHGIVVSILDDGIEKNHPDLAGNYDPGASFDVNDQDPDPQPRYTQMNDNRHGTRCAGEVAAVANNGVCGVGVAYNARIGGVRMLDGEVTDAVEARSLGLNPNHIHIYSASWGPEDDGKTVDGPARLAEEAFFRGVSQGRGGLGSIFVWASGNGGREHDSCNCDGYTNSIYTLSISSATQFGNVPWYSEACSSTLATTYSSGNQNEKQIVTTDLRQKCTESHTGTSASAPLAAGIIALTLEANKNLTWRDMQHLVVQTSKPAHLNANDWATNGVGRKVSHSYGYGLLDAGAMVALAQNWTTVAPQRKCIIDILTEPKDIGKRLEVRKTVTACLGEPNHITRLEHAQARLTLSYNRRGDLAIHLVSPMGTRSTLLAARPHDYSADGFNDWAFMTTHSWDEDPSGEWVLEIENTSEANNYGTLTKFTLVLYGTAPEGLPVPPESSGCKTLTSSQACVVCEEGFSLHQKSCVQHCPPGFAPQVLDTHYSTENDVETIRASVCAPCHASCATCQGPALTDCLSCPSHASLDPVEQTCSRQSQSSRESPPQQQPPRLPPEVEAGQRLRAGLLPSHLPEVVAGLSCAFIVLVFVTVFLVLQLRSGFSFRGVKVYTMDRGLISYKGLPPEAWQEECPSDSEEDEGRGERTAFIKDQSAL

The term Km denotes the substrate concentration at which the rate is half of its maximum. Regarding “5-TAMRA-DELRLDRAGGYIFSS-K-QSY7 [Peptide 2]”, on nsP2pro, the “nsP2pro Vmax” value worked out at 0.26 µM/min, the Km is 6.3 µM and the nsP2pro kcat is reported as 214.2 ± 13.1 x 10^-4 sec^-1. At FL nsP2, the “full-length nsP2 Vmax” value was 0.2 µM/min, the Km stood at 1.1 µM and the “FL nsP2 kcat” value came out at 167.2 ± 10.4 s⁻¹.

For orientation: pIC50 means the negative decadic logarithm of the IC50, by convention in mol/L. What is called AC50 is the concentration at which the activity in the assay is half-maximal. Turning to `Nc1nc2c(s1)CCN(Cc1ccc(Cl)cc1)CC2` [B-HT 958], on CHIKV nsP2pro, the pIC50 is 5.10; the “selectivity for nsP2pro versus Papain, hFurin and HCV NS3-4A” value (“selectivity for nsP2pro versus Papain” for short) is “specific to nsP2pro”; the Emax was -62.1%. Further, at nsP2 protease, half-maximal activity (AC50) was put at 0.23 µM and the Emax came out at 114%.

In the case of `O=C(O[C@@H]1Cc2c(O)cc(O)cc2O[C@@H]1c1cc(O)c(O)c(O)c1)c1cc(O)c(O)c(O)c1` [EGCG, Epigallocatechin gallate], the “inhibitory activity against CHIKV nsP2” value at CHIKV nsP2pro is on record as “inhibited nsp2pro activity in vitro”. For the same compound, the “effect on Nluc reporter signal in cellular nsp2 proteolytic assay” value on nsP2 protease is given as “did not have an effect”. Besides, the “effect on CHIKV infection” value in data set [1] (SNB-19 cells) is “strongly prevented CHIKV infection”.

For `Nc1ccn([C@@H]2O[C@H](CO)[C@@H](O)C2(F)F)c(=O)n1` [Gemcitabine], in [1] (SNB-19 cells, infection inhibition control), the “concentrations showing consistent CHIKV inhibition” value is listed as “under 1 µM”.

On to `C[C@H](N)[C@H](O)c1ccc(O)c(O)c1` [Levonordefrin], for which, at CHIKV nsP2pro, the pIC50 is 5.11; the “selectivity for nsP2pro versus Papain” value is given as “not selective”; the Emax was -74.9%. Besides, on nsP2 protease, the AC50 was 0.4 µM and the Emax is 71.5%. Moreover, the “activity against HCV NS3-4A” value in the data set on HCV NS3-4A is on record as “also inhibited”.

Take `CCOc1ccc(NC(=O)c2c(NC(=O)Cc3ccccc3)sc3c2CCCCC3)cc1` [NCGC00098557]: the “Enzymatic % Efficacy” value at CHIKV nsP2pro (setting [3]) is listed as -80.1%. At CHIKV nsP2pro (setting [4]), the pIC50 was 5.10. The “Cell-based % Efficacy” value on nsP2 protease was 101.3%. The AC50 on nsP2 protease (read-out: Cell-based AC50) stood at 12.9 µM.

With `CCCS(=O)(=O)c1ncc(Cl)c(C(=O)N(Cc2ccccc2)Cc2ccco2)n1` [NCGC00115102], the “selectivity for nsP2pro versus Papain” value at CHIKV nsP2pro is “specific to nsP2pro”.

As to `O=c1oc2c3c(ccc2c2ccccc12)OCN(Cc1ccc(Cl)cc1)C3` [NCGC00116366], on CHIKV nsP2pro, the pIC50 was 5.35 and the Emax was -114%. Also, on nsP2 protease, half-maximal activity (AC50) was put at 36.5 µM and the Emax came to 309%.

Regarding `O=c1oc2c3c(ccc2c2ccccc12)OCN(Cc1ccccc1Cl)C3` [NCGC00116374], at CHIKV nsP2pro, the pIC50 was 5.40; the “selectivity for nsP2pro versus Papain” value is listed as “specific to nsP2pro”; the Emax is -103%. Further, at nsP2 protease, half-maximal activity (AC50) was put at 14.5 µM and the Emax was found to be 112%.

For `Cc1cccc(C(=O)Nc2ccc(N3CCN(c4ccc(F)cc4)CC3)c(C(=O)O)c2)c1` [NCGC00137618], at CHIKV nsP2pro (setting [3]), the “Enzymatic % Efficacy” value is on record as -83%. Further, the negative-log IC50 (pIC50) on CHIKV nsP2pro (setting [4]) was 5.00. In addition, at nsP2 protease, the “Cell-based % Efficacy” value was 55.5%. Also, at nsP2 protease (read-out: Cell-based AC50), the concentration at half-maximal activity (AC50) worked out at 32.6 µM.

As to `Cc1ccc(OCCn2c(CCNC(=O)c3ccccc3N)nc3ccccc32)cc1` [NCGC00241881], the “selectivity for nsP2pro versus Papain” value on CHIKV nsP2pro is reported as “not selective”. For the same compound, the “Enzymatic % Efficacy” value on CHIKV nsP2pro (setting [3]) was -106.1%. Further, the negative-log IC50 (pIC50) at CHIKV nsP2pro (setting [4]) was 5.96. Further, at nsP2 protease, the “Cell-based % Efficacy” value was 179%. Moreover, at nsP2 protease (read-out: Cell-based AC50), the AC50 was above 50 µM.

As to `Cc1cccc(-c2noc([C@@H]3Cc4nc[nH]c4CN3C(=O)NC3CCCCC3)n2)c1` [NCGC00400417], the “selectivity for nsP2pro versus Papain” value on CHIKV nsP2pro was “not selective”. In addition, on CHIKV nsP2pro (setting [3]), the “Enzymatic % Efficacy” value is given as -107.3%. The pIC50 at CHIKV nsP2pro (setting [4]) is 5.68. For the same compound, the “Cell-based % Efficacy” value at nsP2 protease stood at 75.7%. Moreover, the AC50 at nsP2 protease (read-out: Cell-based AC50) came to 47.2 µM.

`COc1cccc(C(=O)CCN[C@@H](C)[C@H](O)c2ccccc2)c1` [Oxyfedrine]: on CHIKV nsP2pro, the pIC50 is 5.89; the “selectivity for nsP2pro versus Papain” value is reported as “selective hits; also recorded: specific to nsP2pro”; the Emax was -88.6%. In addition, on nsP2 protease, the AC50 is 2.6 µM and the Emax came to 60.3%.

Turning to `C#CC(=O)N(c1ccc(OC)cc1OC)C(C(=O)NCC(=O)OCC)c1cccs1` (stereo not shown) [PACMA 31], the “selectivity for nsP2pro versus Papain” value at CHIKV nsP2pro is “selective hits”.

A word on the CC50: it is the concentration at which the toxic effect on the cells reaches its halfway point. On to `C/C(=N\NC(=N)N)c1cc(NC(=O)CCCCCCCCC(=O)Nc2cc(/C(C)=N/NC(=N)N)cc(/C(C)=N/NC(=N)N)c2)cc(/C(C)=N/NC(=N)N)c1` [Semapimod], for which, on CHIKV nsP2pro, the pIC50 was 5.20; the “selectivity for nsP2pro versus Papain” value was “not selective”; the Emax was -106%. In addition, the “activity against Furin” value on human Furin is recorded as “weak activity”. In addition, at nsP2 protease, the AC50 turned out to be 2.2 µM and the Emax was 137%. The CC50 at 48 h in data set [2] was 20.6 µM. Besides, the “activity against HCV NS3-4A” value in the data set with HCV NS3-4A is reported as “also inhibited”. Moreover, the pIC50 in data set [1] (Chikungunya virus, SNB-19, 44 h, read-out: IC50, prevention of CHIKV infection) is 5.80. Further, the “potency on CHIKV infection relative to effect on cell viability” value in data set [1] (IC50 infection vs CC50 SNB19) was “> tenfold”.

For `CCC[C@H](NC(=O)[C@@H]1[C@H]2CCC[C@H]2CN1C(=O)[C@@H](NC(=O)[C@@H](NC(=O)c1cnccn1)C1CCCCC1)C(C)(C)C)C(=O)C(=O)NC1CC1` [Telaprevir], on CHIKV nsP2pro, the pIC50 was 5.46; the “selectivity for nsP2pro versus Papain” value was “not selective”; the Emax is -123%. At nsP2 protease, the activity was half-maximal at 31.6 µM (AC50) and the Emax was found to be 213%. It took 11.6 µM to reach half-maximal cytotoxicity in data set [2] (CC50 at 48 h). The “activity against Papain” value at Papain is on record as “potently inhibiting”. Moreover, the “activity against HCV NS3-4A” value with HCV NS3-4A is given as “potently inhibiting; also recorded: also inhibited”.

Turning to `COC(=O)CC[C@H](NC(=O)[C@H](CC(=O)OC)NC(=O)OCc1ccccc1)C(=O)N[C@H](C(=O)N[C@@H](CC(=O)OC)C(=O)CF)C(C)C` [Z-DEVD-FMK], the “inhibitory activity against CHIKV nsP2” value on CHIKV nsP2pro was “did not identify”.

With `CC(NC(=O)[C@H](Cc1ccccc1)NC(=O)OCc1ccccc1)C(=O)CF` (stereo partly shown) [Z-FA-FMK], the “inhibitory activity against CHIKV nsP2” value on CHIKV nsP2pro is reported as “minimal inhibitory activity”. In addition, at Papain, the “activity against Papain” value is recorded as “potently inhibiting”.

`CC(C)N(CCC(=O)c1ccc2ccccc2c1)Cc1ccccc1` [ZM39923]: the “selectivity for nsP2pro versus Papain” value on CHIKV nsP2pro was “selective hits”.

In the case of `CCCCN(CCCC)C(=S)[S-].CCCCN(CCCC)C(=S)[S-].[Zn+2]` [Zinc dibutyldithiocarbamate], the “inhibitory activity against CHIKV nsP2” value against CHIKV nsP2pro was “potent inhibitor”. Also, the “activity against Furin” value at human Furin is “either weak or had no effect”. Moreover, the “activity against Papain” value at Papain is listed as “potent inhibitor”. For the same compound, the “activity against HCV NS3-4A” value with HCV NS3-4A is “either weak or had no effect”. In addition, in [1] (SNB-19 cells), the “effect on CHIKV infection” value is “difficult to distinguish from cell toxicity”.

Regarding TMR-DELRLDRAGC/APSYR-K-QSY7 [Peptide 3], on nsP2pro, the “nsP2pro Vmax” value came to 1.03 µM/min, the Km is 81.9 µM and the nsP2pro kcat is 85.5 ± 4.1 x 10^-4 sec^-1. Further, at FL nsP2, the “full-length nsP2 Vmax” value turned out to be 0.38 µM/min, the Km is 37.5 µM and the “FL nsP2 kcat” value was determined as 32.1 ± 2.1 s⁻¹.
